Values joined by “and” are separate entries in the source; they are usually repeats but may differ in a detail not shown here. Identical values can stand only once.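 All cell lines were grown in 96-well plates and treated with compound for 48 hours. Abbreviation: GI50, concentration required for 50% inhibition of growth. TGI is the concentration that stops growth completely.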
How the values were obtained:
Assay in all cases: growth of human tumour cells (NCI), 48 h
A498 renal = system: A498 renal
A549 NSCLC = system: A549 NSCLC
CAKI-1 renal = system: CAKI-1 renal
DU-145 prostate = system: DU-145 prostate
HT29 colon = system: HT29 colon
KM12 colon = system: KM12 colon
MCF7 breast = system: MCF7 breast
NCI-H522 lung = system: NCI-H522 lung
OVCAR-3 ovarian = system: OVCAR-3 ovarian
OVCAR-4 ovarian = system: OVCAR-4 ovarian
PC-3 prostate = system: PC-3 prostate
SF-268 CNS = system: SF-268 CNS
SK-MEL-2 melanoma = system: SK-MEL-2 melanoma
SK-MEL-28 melanoma = system: SK-MEL-28 melanoma
SK-MEL-5 melanoma = system: SK-MEL-5 melanoma
SN12C renal = system: SN12C renal
SNB-75 CNS = system: SNB-75 CNS
SW-620 colon = system: SW-620 colon
TK-10 renal = system: TK-10 renal
U251 CNS = system: U251 CNS
UACC-257 melanoma = system: UACC-257 melanoma
UACC-62 melanoma = system: UACC-62 melanoma
UO-31 renal = system: UO-31 renal
786-0 renal = system: 786-0 renal
ACHN renal = system: ACHN renal
BT-549 breast = system: BT-549 breast
CCRF-CEM leukemia = system: CCRF-CEM leukemia
COLO 205 colon = system: COLO 205 colon
EKVX NSCLC = system: EKVX NSCLC
HCC-2998 colon = system: HCC-2998 colon
HCT-116 colon = system: HCT-116 colon
HCT-15 colon = system: HCT-15 colon
HOP-92 NSCLC = system: HOP-92 NSCLC
HS 578T breast = system: HS 578T breast
IGROV1 ovarian = system: IGROV1 ovarian
K-562 leukemia = system: K-562 leukemia
LOX IMVI melanoma = system: LOX IMVI melanoma
M14 melanoma = system: M14 melanoma
MALME-3M melanoma = system: MALME-3M melanoma
MDA-MB-231 breast = system: MDA-MB-231 breast
MDA-MB-435 = system: MDA-MB-435
MOLT-4 leukemia = system: MOLT-4 leukemia
NCI-H226 lung = system: NCI-H226 lung
NCI-H23 lung = system: NCI-H23 lung
NCI-H460 lung = system: NCI-H460 lung
OVCAR-5 ovarian = system: OVCAR-5 ovarian
OVCAR-8 ovarian = system: OVCAR-8 ovarian
RPMI-8226 leukemia = system: RPMI-8226 leukemia
RXF 393 renal = system: RXF 393 renal
SF-295 CNS = system: SF-295 CNS
SF-539 CNS = system: SF-539 CNS
SK-OV-3 ovarian = system: SK-OV-3 ovarian
SNB-19 CNS = system: SNB-19 CNS
SR leukemia = system: SR leukemia
T-47D breast = system: T-47D breast

CCCCNCC(O)c1cc(-c2ccc(C(F)(F)F)cc2)nc(-c2ccc(C(F)(F)F)cc2)c1 (configuration not stated)
GI50 (A498 renal): 1.38 µM | TGI (A498 renal): 2.86 µM | GI50 (A549 NSCLC): 1.64 µM | TGI (A549 NSCLC): 3.36 µM | GI50 (CAKI-1 renal): 1.71 µM | TGI (CAKI-1 renal): 3.41 µM | GI50 (DU-145 prostate): 2.02 µM | TGI (DU-145 prostate): 3.65 µM | GI50 (HT29 colon): 1.84 µM | TGI (HT29 colon): 3.62 µM | GI50 (KM12 colon): 1.81 µM | TGI (KM12 colon): 3.6 µM | GI50 (MCF7 breast): 1.79 µM | TGI (MCF7 breast): 3.54 µM | GI50 (NCI-H522 lung): 1.8 µM | TGI (NCI-H522 lung): 3.53 µM | GI50 (OVCAR-3 ovarian): 1.98 µM | TGI (OVCAR-3 ovarian): 3.66 µM | GI50 (OVCAR-4 ovarian): 2.11 µM | TGI (OVCAR-4 ovarian): 3.93 µM | GI50 (PC-3 prostate): 1.52 µM | TGI (PC-3 prostate): 3.05 µM | GI50 (SF-268 CNS): 1.97 µM | TGI (SF-268 CNS): 3.89 µM | GI50 (SK-MEL-2 melanoma): 2.46 µM | TGI (SK-MEL-2 melanoma): 4.33 µM | GI50 (SK-MEL-28 melanoma): 2.08 µM | TGI (SK-MEL-28 melanoma): 3.81 µM | GI50 (SK-MEL-5 melanoma): 1.77 µM | TGI (SK-MEL-5 melanoma): 3.26 µM | GI50 (SN12C renal): 1.9 µM | TGI (SN12C renal): 3.55 µM | GI50 (SNB-75 CNS): 1.91 µM | TGI (SNB-75 CNS): 3.6 µM | GI50 (SW-620 colon): 1.26 µM | TGI (SW-620 colon): 2.96 µM | GI50 (TK-10 renal): 2.16 µM | TGI (TK-10 renal): 3.83 µM | GI50 (U251 CNS): 1.73 µM | TGI (U251 CNS): 3.39 µM | GI50 (UACC-257 melanoma): 1.83 µM | TGI (UACC-257 melanoma): 3.57 µM | GI50 (UACC-62 melanoma): 1.89 µM | TGI (UACC-62 melanoma): 3.67 µM | GI50 (UO-31 renal): 1.44 µM | TGI (UO-31 renal): 3.08 µM

O=[N+]([O-])c1ccc(O)c2ncccc12
TGI (786-0 renal): > 100 µM and 11.6 µM | TGI (A549 NSCLC): > 100 µM and 12.9 µM | GI50 (ACHN renal): 42.5 µM and 4.81 µM | TGI (ACHN renal): > 100 µM and 35.8 µM | TGI (BT-549 breast): > 100 µM and 24 µM | TGI (CAKI-1 renal): > 100 µM and 16.5 µM | TGI (CCRF-CEM leukemia): > 100 µM | TGI (COLO 205 colon): > 100 µM and 10.7 µM | TGI (DU-145 prostate): > 100 µM and 15.2 µM | TGI (EKVX NSCLC): > 100 µM and 17.9 µM | GI50 (HCC-2998 colon): 5.21 µM | TGI (HCC-2998 colon): 18.5 µM | TGI (HCT-116 colon): > 100 µM and 12.5 µM | TGI (HCT-15 colon): > 100 µM and 18.8 µM | GI50 (HOP-92 NSCLC): 19.1 µM and 4.22 µM | TGI (HOP-92 NSCLC): 82.6 µM and 21.3 µM | TGI (HS 578T breast): > 100 µM | TGI (HT29 colon): > 100 µM and 18.9 µM | TGI (IGROV1 ovarian): > 100 µM and 13.8 µM | TGI (K-562 leukemia): > 100 µM and 15.5 µM | GI50 (KM12 colon): 3.92 µM and 4.31 µM | TGI (KM12 colon): > 100 µM and 16.5 µM | TGI (LOX IMVI melanoma): > 100 µM and 13 µM | TGI (M14 melanoma): > 100 µM and 10.5 µM | GI50 (MALME-3M melanoma): 3.55 µM | TGI (MALME-3M melanoma): 17.4 µM | GI50 (MCF7 breast): 23.1 µM and 3.39 µM | TGI (MCF7 breast): > 100 µM and 11.5 µM | GI50 (MDA-MB-231 breast): 38.4 µM and 4.4 µM | TGI (MDA-MB-231 breast): > 100 µM and 20.6 µM | TGI (MDA-MB-435): > 100 µM and 15.2 µM | TGI (MOLT-4 leukemia): > 100 µM and 10.4 µM | TGI (NCI-H226 lung): > 100 µM and 18.6 µM | TGI (NCI-H23 lung): > 100 µM and 28.9 µM | TGI (NCI-H460 lung): > 100 µM and 11.4 µM | TGI (OVCAR-5 ovarian): > 100 µM and 40.5 µM | TGI (OVCAR-8 ovarian): > 100 µM and 19.1 µM | GI50 (PC-3 prostate): 35.8 µM and 4.02 µM | TGI (PC-3 prostate): > 100 µM | TGI (RPMI-8226 leukemia): > 100 µM | TGI (RXF 393 renal): > 100 µM and 18.2 µM | TGI (SF-268 CNS): > 100 µM and 16 µM | GI50 (SF-295 CNS): 22 µM and 2.28 µM | TGI (SF-295 CNS): 82.4 µM and 13.1 µM | TGI (SF-539 CNS): > 100 µM and 20.8 µM | GI50 (SK-MEL-2 melanoma): 4.06 µM | TGI (SK-MEL-2 melanoma): 19.3 µM | TGI (SK-MEL-28 melanoma): > 100 µM and 24.7 µM | TGI (SK-OV-3 ovarian): > 100 µM and 15.7 µM | TGI (SN12C renal): > 100 µM and 58.1 µM | TGI (SNB-19 CNS): > 100 µM and 32.6 µM | TGI (SNB-75 CNS): > 100 µM and 26 µM | GI50 (SR leukemia): 3.01 µM | TGI (SR leukemia): 9.29 µM | TGI (SW-620 colon): > 100 µM and 18.6 µM | GI50 (T-47D breast): 23 µM and 2.38 µM | TGI (TK-10 renal): > 100 µM and 30.3 µM | TGI (U251 CNS): > 100 µM and 13.3 µM | TGI (UACC-62 melanoma): > 100 µM and 11.6 µM | GI50 (UO-31 renal): 18.7 µM and 3.93 µM | TGI (UO-31 renal): > 100 µM and 20.8 µM
